Reference: patent US20100184679A1, “USE OF A COMBINATION OF CART PEPTIDES AS A THERAPEUTIC AGENT” (priority 2007, published 2010)
Where no end group is shown, it is not given here.

What was measured:
HCMV strain AD169 = experiment: HCMV plaque formation assay in MRC-5 cells; format: cell-based; conditions: for inhibition of HCMV plaque formation as compared to the virus control experiment: 10 micrograms per ml, 7-10 days
Source text: Ganciclovir was used as positive control.

HIV-1IIIB = experiment: HIV-1 antiviral assay in CEM-SS cells (MTS readout)
[1] = test system: Primary Human endothelial cells (HUVEC); experiment: Endothelial cell migration assay; format: cell-based; conditions: 10 micrograms per ml, 22 hours
Description: Thereafter, designated concentration of testing peptides—10 micrograms per ml—was added in duplicate wells.

[2] = test system: hepatitis B virus (HBV) ayw strain; experiment: HBV assay in HepG2-2.2.15 cells (TaqMan PCR of secreted HBV DNA); format: cell-based; conditions: 10 micrograms per ml, six days, HBV DNA in supernatant
HUVEC = experiment: Endothelial tube formation assay; format: cell-based, human; conditions: 10 micrograms per ml, 20 hours
Source text: Positive control was vehicle only.

Human A549 cells = experiment: Apoptosis induction assay (Annexin-5); format: cell-based; conditions: 10 micrograms per ml, 24 hours
Description: Human A549 cells (carcinomic human alveolar basal epithelial cells) were utilized in the experiments employing the Annexin-5 apoptosis assay. […] Test peptides—10 micrograms per ml—were exposed for 24 hours to the A549 cells before they were analyzed for signs of apoptosis.

murine spleen cells = experiment: Th1/Th2 cytokine profiling assay (Ovalbumin-restimulated spleen cells, CBA Kit); format: cell-based, Balb/c mice; conditions: 10 micrograms per ml, Ovalbumin restimulation, 72 hours
Source text: The Balb/c mice (originated in 1923, it is a popular strain and is used in many different research disciplines. Also classified as an inbred from the production of 20 or more successive brother-sister matings, the Balb/c mouse is albino and small in size) were immunized on Days 1, 15, and 29 with Ovalbumin (Ovalbumin is the main protein found in egg white, commonly used to stimulate an immunological reaction in test animals) in PBS (5 micrograms/injection). On day 50, spleens of the mice were harvested (3 weeks after last boost with Ovalbumin), Cells were cultured (2×10^5/well in triplicate) and incubated with culture medium or test peptides—10 micrograms per ml—for 30 min. Thereafter, additional Ovalbumin was added to the cells at 10 micrograms/ml for in vitro restimulation of the cells. 72 hours later, cell supernatants were harvested and assayed using the Becton Dickinson Mouse Th1/Th2 Cytokine CBA Kit. This kit can be used to measure Interleukin-2 (IL-2), Interleukin-4 (IL-4), Interleukin-5 (IL-5), Interferon-γ (IFN-γ), and Tumor Necrosis Factor-α (TNF-α) protein levels in a single sample. The kit performance has been optimized for analysis of physiologically relevant concentrations (pg/ml levels) of specific cytokine proteins in tissue culture supernatants and serum samples.

Molecule	antiviral activity of positive control compounds (HIV-1) (HIV-1IIIB)	inhibition of the migration of human endothelial cells [1] [%]	inhibition of HBV replication as compared to the virus control infection [2] [%]	inhibition of the tube formation of human endothelial cells (HUVEC) [%]	induction of apoptosis on human lung cells (Human A549 cells)	change of the production of IFN-gamma (murine spleen cells)	change of the production of IL-5 (murine spleen cells)	production of TNF-alpha, induced by (murine spleen cells) [%]	inhibition of HCMV plaque formation as compared to the virus control experiment (HCMV strain AD169) [%]	further results
Nc1nc(O)c2ncn(COC(CO)CO)c2n1 [Ganciclovir, reference compound]	–	–	–	–	–	–	–	–	–	antiviral activity of positive control compound (HCMV) (HCMV strain AD169; positive control): expected levels of antiviral activity
Cc1cn([C@H]2C[C@H](N=[N+]=[N-])[C@@H](CO)O2)c(=O)[nH]c1=O [AZT]	expected levels of antiviral activity	–	–	–	–	–	–	–	–	–
Val-Pro-Ile-Tyr-Glu-Lys-Lys-Tyr-Gly-Gln-Val-Pro-Met-Cys-Asp-Ala-Gly-Glu-Gln-Cys-Ala-Val-Arg-Lys-Gly-Ala-Arg-Ile-Gly-Lys-Leu-Cys-Asp-Cys-Pro-Arg-Gly-Thr-Ser-Cys-Asn-Ser-Phe-Leu-Leu-Lys-Cys-Leu-OH (VPIYEKKYGQVPMCDAGEQCAVRKGARIGKLCDCPRGTSCNSFLLKCL-OH; cysteine pairing not given here) [Peptide 2]	–	22	45.0	12	17.8%	did not significantly change	did not significantly change	27.5	6.6	production of IL-2, decreased by (murine spleen cells): 61.5%; production of IL-4, decreased by (murine spleen cells): 100%
Tyr-Gly-Gln-Val-Pro-Met-Cys-Asp-Ala-Gly-Glu-Gln-Cys-Ala-Val-OH (YGQVPMCDAGEQCAV-OH; cysteine pairing not given here) [Peptide 1]	–	15	33.6	16	did not show any significant induction	did not significantly change	did not significantly change	95.0	0.7	production of IL-2, induced by (murine spleen cells): 147.7%; production of IL-4, induced by (murine spleen cells): 545.4%
CC(C)(C)NC(=O)[C@@H]1CN(Cc2cccnc2)CCN1C[C@@H](O)C[C@@H](Cc1ccccc1)C(=O)N[C@H]1c2ccccc2C[C@H]1O [indinavir]	expected levels of antiviral activity	–	–	–	–	–	–	–	–	–
